According to patent US4357344A, “Polybutylbenzylphenols and benzyl-3,4-methylenedioxybenzenes in insect population control” (The United States of America as represented by the …, priority 1979, dated 1982):

Tests used:
[1] = test system: flies (family Muscidae); test: Oviposition inhibition tests (treated fly food; Examples 6-9); assay type: in vivo
Method in brief: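 Compound mixed via acetone into sugar/dry milk/egg yolk fly food, solvent evaporated. Cages of 100 newly-emerged adults fed treated diet 6-7 days, then given moist CSMA larva-rearing medium for 4-6 h; cups examined for eggs.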

[2] = test system: early fourth-stage larvae of the common malaria mosquito (Anopheles quadrimaculatus); test: Growth-inhibition tests on mosquito larvae; assay type: in vivo; conditions: in water; corrected by Abbott's formula
Method in brief: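 Fifty early fourth-instar larvae held in 1 L treated water with daily feeding; pupae moved to emergence cages. Dead larvae, pupae and dead, malformed or non-eclosing adults summed, Abbott-corrected as growth inhibition; GI-90 is ppm concentration inhibiting 90% of larvae.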

[3] = Solubility in water; assay type: physicochemical
[4] = Oral toxicity in mice; conditions: mouse, in vivo; oral, mice; read-out: Estimated LD50
Method: (§1) Compounds D, A, and B were also assayed for oral toxicity in mice.

[5] = test system: mice; test: Oral toxicity in mice; conditions: mouse, in vivo, po
Method: as §1

[6] = test system: Salmonella tester strains TA-100, TA-98, TA-1537; test: Ames' Salmonella/microsome mutagenicity procedure
Method: The mutagenic activity of D, A, B, M, N, and CC were tested by the standard Ames' Salmonella/microsome procedure, which is reported to show better than 90% correlation with development of mammalian cancers (Ames et al., Mutation Research, Vol. 31, p. 347, 1975; McCann et al., Proc. Nat. Acad. Sci., Vol. 72, p. 5135, 1975). Tester strains TA-100, TA-98, TA-1537 and the plate test method were used, employing concentrations of 10, 100, 1000, and 10,000 […]. The metabolic activation mixture (S-9 mix) used the 9000 times g supernatant of Arochlor-1254-induced rat liver homogenate at a level of 100 μl per ml of S-9 mix.

[7] = test system: flies (family Muscidae); test: Chemosterilancy tests (egg hatch and pupal development; Examples 6-9); assay type: in vivo
Method in brief: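 Compound fed to flies in sugar/milk powder/egg yolk diet, applied in acetone that was then evaporated. 100 laid eggs per cup transferred onto larval rearing medium. Scored as percentage egg hatch and pupal development.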

[8] = test system: screwworm flies; test: Anti-procreant tests on screw-worm fly; assay type: in vivo
Method: These tests were conducted on mass-reared screwworm flies which had been obtained as pupae from the screwworm fly plant at Mission, Texas. The flies were held in cages with water and undiluted corn syrup in a colony room maintained at about 27° C. and 60% relative humidity (RH) with a 12-hour photoperiod beginning at 6 a.m. Adults that emerged were lightly anesthetized with CO2 for ease of manipulation the same day.
The mixtures obtained were fed to the flies in "Dixie" paper cups, 7 cm diameter, and rice hulls were placed on the surface of the food to prevent the flies from getting stuck in the viscous mixture.
Initially, varying concentrations of a chemosterilant were fed to the flies for the first 5 days of life. Thereafter, the chemosterilant was replaced with pure corn syrup. On the 7th day, 3 replicates of 10 flies were stimulated to oviposit and the flies which oviposited were checked for insemination by an examination of the spermathecae for live sperms. The total number of eggs per fly was estimated and the hatchability of these eggs (fertility) was determined 24 hours later (at 37° C.). Observations were made to determine percentage of egg hatch.

[9] = test system: male flies (family Muscidae); test: Sterilization of treated males crossed with virgin untreated females; assay type: in vivo; conditions: 1.0% in food
Method: The compound to be tested was administered in a standard fly food containing 6 parts of sugar, 6 parts of powdered non-fat dry milk, and 1 part of powdered egg yolk. Treated food was prepared by mixing an appropriate amount of a solution or suspension of CBCP in acetone with a batch of the food. The acetone was evaporated (4-6 hours) and the dry material was repulverized.
These flies were maintained on untreated fly food. After 5 days, cups containing the larval-rearing medium was provided as previously described and a 100-egg sample was collected and place on moist larve-rearing medium. About a week after oviposition, examination was made to determine the percentage of hatched eggs and of pupae developed.

For `CC(c1ccccc1)c1cc(C(C)(C)C)cc(C(C)(C)C)c1O` (stereo not drawn) [A, 4,6-Di-t-butyl-2-α-methylbenzylphenol], the “Mortality, parent generation” value ([1]; 0.01% in food) was 0%, the “Mortality, parent generation” value ([1]; 0.025% in food) was 0% and the “Mortality, parent generation” value ([1]; 0.05% in food) was 0%. The “Mortality, parent generation” value ([1]; 0.1% in food) was 0%, the “Mortality, parent generation” value ([1]; 0.25% in food) was 0% and the “GI-90 (concentration of growth inhibitor that would prevent and/or retard growth in 90% of the treated larvae)” value [2] was 0.039 ppm. The solubility in water [3] was “low solubility in water”, the LD50 [4] was 2510 mg/kg and the “oral toxicity (in words)” value [5] was “only slightly toxic”. The mutagenic activity ([6]; TA-100, TA-98, TA-1537, without or with metabolic activation) was “non-mutagenic”, the Egg hatch ([7]; 0.01% in food) was 39% and the Pupal development ([7]; 0.01% in food) was 39%. It also gave an Egg hatch ([7]; 0.025% in food) of 28%, a Pupal development ([7]; 0.025% in food) of 28% and an Egg hatch ([7]; 0.05% in food) of 0%. It also gave a Pupal development ([7]; 0.05% in food) of 0%, an Egg hatch ([7]; 0.1% in food) of 0% and a Pupal development ([7]; 0.1% in food) of 0%. For the same molecule, the Egg hatch ([7]; 0.25% in food) was 0%, the Pupal development ([7]; 0.25% in food) was 0% and the Inhibition of embryogenesis ([8]; 0.01% in food) was 100%. The Oviposition ([8]; 0.01% in food) was 63.3%, the “Survival, Female” value ([8]; 0.01% in food) was 71.3% and the “Survival, Male” value ([8]; 0.01% in food) was 54.0%. For the same molecule, the Inhibition of embryogenesis ([8]; 0.10% in food) was 100%, the Oviposition ([8]; 0.10% in food) was 90.0% and the “Survival, Female” value ([8]; 0.10% in food) was 68.0%. The “Survival, Male” value ([8]; 0.10% in food) was 47.0%.

With `CC(C)(C)c1cc(Cc2ccccc2)c(O)c(C(C)(C)C)c1` [D, 2,4-Di-t-butyl-6-benzylphenol] the sterilization of males [9] was 100%, the “Mortality, parent generation” value ([1]; 0.05% in food) was 0% and the “Mortality, parent generation” value ([1]; 0.1% in food) was 0%. For the same molecule, the “Mortality, parent generation” value ([1]; 0.25% in food) was 0%, the “Mortality, parent generation” value ([1]; 0.5% in food) was 0% and the “Mortality, parent generation” value ([1]; 1.0% in food) was 0%. For the same molecule, the solubility in water [3] was “low solubility in water”, the LD50 [4] was 3430 mg/kg and the “oral toxicity (in words)” value [5] was “only slightly toxic”. The revertant frequencies ([6]; 10-10,000 μg/plate in TA-100 and S-9) was “exceeded the mean control value plus two or three standard deviations”, the “mutagenic response relative to known mutagenic agents which revert this strain” value ([6]; TA-100 and S-9) was “extremely weak” and the Egg hatch ([7]; 0.05% in food) was 90%. For the same molecule, the Pupal development ([7]; 0.05% in food) was 90%, the Egg hatch ([7]; 0.1% in food) was 0% and the Pupal development ([7]; 0.1% in food) was 0%. For the same molecule, the Egg hatch ([7]; 0.25% in food) was 0%, the Pupal development ([7]; 0.25% in food) was 0% and the Egg hatch ([7]; 0.5% in food) was 0%. For the same molecule, the Pupal development ([7]; 0.5% in food) was 0%, the Egg hatch ([7]; 1.0% in food) was 0% and the Pupal development ([7]; 1.0% in food) was 0%. For the same molecule, the Inhibition of embryogenesis ([8]; 0.01% in food) was 95.2%, the Oviposition ([8]; 0.01% in food) was 66.7% and the “Survival, Female” value ([8]; 0.01% in food) was 49.3%. For the same molecule, the “Survival, Male” value ([8]; 0.01% in food) was 46.0%, the Inhibition of embryogenesis ([8]; 0.10% in food) was 100% and the Oviposition ([8]; 0.10% in food) was 95.0%. The “Survival, Female” value ([8]; 0.10% in food) was 88.7% and the “Survival, Male” value ([8]; 0.10% in food) was 55.0%.
